Test results: the NIST ThermoML archive (doi:10.1016/j.jct.2004.12.004)

Assay: mn = molality of the nth substance listed, in mol/kg
Conditions: 350 kPa, Liquid, Extra sensitive DSC

OC[C@H]1O[C@@](CO)(O[C@H]2O[C@H](CO)[C@@H](O)[C@H](O)[C@H]2O)[C@@H](O)[C@@H]1O [D-sucrose] + O
Conditions	apparent molar heat capacity [J/K/mol]
278.15 K, m1 = 0.01461	532.5
278.15 K, m1 = 0.03048	533.5
278.15 K, m1 = 0.06172	533.8
278.15 K, m1 = 0.1302	535.7
278.15 K, m1 = 0.2486	538.6
278.15 K, m1 = 0.4969	544.2
278.15 K, m1 = 0.746	548.9
278.15 K, m1 = 0.9972	554.2
278.15 K, m1 = 1.489	560.3
278.15 K, m1 = 1.99	566.8
278.15 K, m1 = 2.99	577.9
278.15 K, m1 = 3.995	587.9
283.15 K, m1 = 0.01461	567.4
283.15 K, m1 = 0.03048	567.3
283.15 K, m1 = 0.06172	568.9
283.15 K, m1 = 0.1302	569.8
283.15 K, m1 = 0.2486	572
283.15 K, m1 = 0.4969	575.9
283.15 K, m1 = 0.746	579.3
283.15 K, m1 = 0.9972	583.7
283.15 K, m1 = 1.489	587.9
283.15 K, m1 = 1.99	593.1
283.15 K, m1 = 2.99	601.8
283.15 K, m1 = 3.995	610
288.15 K, m1 = 0.01461	596.7
288.15 K, m1 = 0.03048	596.6
288.15 K, m1 = 0.06172	597.7
288.15 K, m1 = 0.1302	598.1
288.15 K, m1 = 0.2486	599.7
288.15 K, m1 = 0.4969	602.4
288.15 K, m1 = 0.746	604.7
288.15 K, m1 = 0.9972	608.3
288.15 K, m1 = 1.489	611
288.15 K, m1 = 1.99	614.9
288.15 K, m1 = 2.99	621.5
288.15 K, m1 = 3.995	628.2
293.15 K, m1 = 0.01461	622
293.15 K, m1 = 0.03048	621.8
293.15 K, m1 = 0.06172	622.6
293.15 K, m1 = 0.1302	622.7
293.15 K, m1 = 0.2486	623.7
293.15 K, m1 = 0.4969	625.6
293.15 K, m1 = 0.746	627.1
293.15 K, m1 = 0.9972	629.8
293.15 K, m1 = 1.489	631.4
293.15 K, m1 = 1.99	634.1
293.15 K, m1 = 2.99	639
293.15 K, m1 = 3.995	644.5
298.15 K, m1 = 0.01461	642.1
298.15 K, m1 = 0.03048	642.9
298.15 K, m1 = 0.06172	644
298.15 K, m1 = 0.1302	643.9
298.15 K, m1 = 0.2486	644.7
298.15 K, m1 = 0.4969	646
298.15 K, m1 = 0.746	646.9
298.15 K, m1 = 0.9972	649.1
298.15 K, m1 = 1.489	649.6
298.15 K, m1 = 1.99	651.6
298.15 K, m1 = 2.99	655.2
298.15 K, m1 = 3.995	659.4
303.15 K, m1 = 0.01461	660.7
303.15 K, m1 = 0.03048	662.1
303.15 K, m1 = 0.06172	663
303.15 K, m1 = 0.1302	663.2
303.15 K, m1 = 0.2486	663.8
303.15 K, m1 = 0.4969	664.5
303.15 K, m1 = 0.746	665.1
303.15 K, m1 = 0.9972	666.8
303.15 K, m1 = 1.489	666.5
303.15 K, m1 = 1.99	667.8
303.15 K, m1 = 2.99	670.4
303.15 K, m1 = 3.995	673.5
308.15 K, m1 = 0.01461	679
308.15 K, m1 = 0.03048	679.1
308.15 K, m1 = 0.06172	680.3
308.15 K, m1 = 0.1302	680.3
308.15 K, m1 = 0.2486	680.6
308.15 K, m1 = 0.4969	680.9
308.15 K, m1 = 0.746	681.1
308.15 K, m1 = 0.9972	682.4
308.15 K, m1 = 1.489	681.8
308.15 K, m1 = 1.99	682.4
308.15 K, m1 = 2.99	683.9
308.15 K, m1 = 3.995	686.3
313.15 K, m1 = 0.01461	695.3
313.15 K, m1 = 0.03048	695.1
313.15 K, m1 = 0.06172	696.3
313.15 K, m1 = 0.1302	696.2
313.15 K, m1 = 0.2486	696.3
313.15 K, m1 = 0.4969	696.3
313.15 K, m1 = 0.746	696.2
313.15 K, m1 = 0.9972	697.3
313.15 K, m1 = 1.489	696.3
313.15 K, m1 = 1.99	696.4
313.15 K, m1 = 2.99	697.1
313.15 K, m1 = 3.995	698.8
318.15 K, m1 = 0.01461	709.1
318.15 K, m1 = 0.03048	709.4
318.15 K, m1 = 0.06172	710.4
318.15 K, m1 = 0.1302	710.3
318.15 K, m1 = 0.2486	710.3
318.15 K, m1 = 0.4969	710.1
318.15 K, m1 = 0.746	709.8
318.15 K, m1 = 0.9972	710.5
318.15 K, m1 = 1.489	709.1
318.15 K, m1 = 1.99	709.1
318.15 K, m1 = 2.99	709.1
318.15 K, m1 = 3.995	710.2
323.15 K, m1 = 0.01461	722.3
323.15 K, m1 = 0.03048	722.4
323.15 K, m1 = 0.06172	723.4
323.15 K, m1 = 0.1302	723.1
323.15 K, m1 = 0.2486	723
323.15 K, m1 = 0.4969	722.6
323.15 K, m1 = 0.746	722
323.15 K, m1 = 0.9972	722.7
323.15 K, m1 = 1.489	721
323.15 K, m1 = 1.99	720.7
323.15 K, m1 = 2.99	720.3
323.15 K, m1 = 3.995	720.8
328.15 K, m1 = 0.01461	735.7
328.15 K, m1 = 0.03048	735.3
328.15 K, m1 = 0.06172	735.9
328.15 K, m1 = 0.1302	735.3
328.15 K, m1 = 0.2486	735.1
328.15 K, m1 = 0.4969	734.6
328.15 K, m1 = 0.746	733.9
328.15 K, m1 = 0.9972	734.3
328.15 K, m1 = 1.489	732.5
328.15 K, m1 = 1.99	731.9
328.15 K, m1 = 2.99	730.9
328.15 K, m1 = 3.995	731.1
333.15 K, m1 = 0.01461	746.9
333.15 K, m1 = 0.03048	746.6
333.15 K, m1 = 0.06172	747
333.15 K, m1 = 0.1302	746.5
333.15 K, m1 = 0.2486	746.2
333.15 K, m1 = 0.4969	745.4
333.15 K, m1 = 0.746	744.6
333.15 K, m1 = 0.9972	745
333.15 K, m1 = 1.489	742.9
333.15 K, m1 = 1.99	742.1
333.15 K, m1 = 2.99	740.7
333.15 K, m1 = 3.995	740.5
338.15 K, m1 = 0.01461	756.6
338.15 K, m1 = 0.03048	757.3
338.15 K, m1 = 0.06172	757.4
338.15 K, m1 = 0.1302	756.8
338.15 K, m1 = 0.2486	756.4
338.15 K, m1 = 0.4969	755.6
338.15 K, m1 = 0.746	754.7
338.15 K, m1 = 0.9972	754.9
338.15 K, m1 = 1.489	752.7
338.15 K, m1 = 1.99	751.7
338.15 K, m1 = 2.99	750
338.15 K, m1 = 3.995	749.3
343.15 K, m1 = 0.01461	765.9
343.15 K, m1 = 0.03048	766.2
343.15 K, m1 = 0.06172	766.8
343.15 K, m1 = 0.1302	766.3
343.15 K, m1 = 0.2486	766
343.15 K, m1 = 0.4969	765.2
343.15 K, m1 = 0.746	764.2
343.15 K, m1 = 0.9972	764.2
343.15 K, m1 = 1.489	762
343.15 K, m1 = 1.99	760.8
343.15 K, m1 = 2.99	759
343.15 K, m1 = 3.995	758
348.15 K, m1 = 0.01461	774.3
348.15 K, m1 = 0.03048	775.2
348.15 K, m1 = 0.06172	775.7
348.15 K, m1 = 0.1302	775.1
348.15 K, m1 = 0.2486	774.7
348.15 K, m1 = 0.4969	774
348.15 K, m1 = 0.746	772.8
348.15 K, m1 = 0.9972	772.7
348.15 K, m1 = 1.489	770.4
348.15 K, m1 = 1.99	769.1
348.15 K, m1 = 2.99	767
348.15 K, m1 = 3.995	765.8
353.15 K, m1 = 0.01461	781.7
353.15 K, m1 = 0.03048	783.6
353.15 K, m1 = 0.06172	784
353.15 K, m1 = 0.1302	783.3
353.15 K, m1 = 0.2486	783
353.15 K, m1 = 0.4969	782.2
353.15 K, m1 = 0.746	780.9
353.15 K, m1 = 0.9972	780.7
353.15 K, m1 = 1.489	778.3
353.15 K, m1 = 1.99	777
353.15 K, m1 = 2.99	774.6
353.15 K, m1 = 3.995	773.2
358.15 K, m1 = 0.01461	791
358.15 K, m1 = 0.03048	791.1
358.15 K, m1 = 0.06172	791.9
358.15 K, m1 = 0.1302	791.1
358.15 K, m1 = 0.2486	790.6
358.15 K, m1 = 0.4969	789.8
358.15 K, m1 = 0.746	788.4
358.15 K, m1 = 0.9972	788.2
358.15 K, m1 = 1.489	785.7
358.15 K, m1 = 1.99	784.3
358.15 K, m1 = 2.99	781.7
358.15 K, m1 = 3.995	780
363.15 K, m1 = 0.01461	797.3
363.15 K, m1 = 0.03048	797.3
363.15 K, m1 = 0.06172	798
363.15 K, m1 = 0.1302	797.4
363.15 K, m1 = 0.2486	797.1
363.15 K, m1 = 0.4969	796.6
363.15 K, m1 = 0.746	795.1
363.15 K, m1 = 0.9972	794.7
363.15 K, m1 = 1.489	792.3
363.15 K, m1 = 1.99	790.9
363.15 K, m1 = 2.99	788.1
363.15 K, m1 = 3.995	786.3
